Source: PubChem BioAssay (NCI)
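Five concentrations, 48 hours, 96-well plates. GI50 is the concentration that inhibits growth by half. The concentration for full growth arrest is given as TGI.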

What was measured:
Test in all cases: NCI-60 cell line screen, 48 h
BT-549 breast = tested on: BT-549 breast
CAKI-1 renal = tested on: CAKI-1 renal
HCC-2998 colon = tested on: HCC-2998 colon
KM12 colon = tested on: KM12 colon
MOLT-4 leukemia = tested on: MOLT-4 leukemia
NCI-H23 lung = tested on: NCI-H23 lung
SN12C renal = tested on: SN12C renal
SNB-75 CNS = tested on: SNB-75 CNS
SW-620 colon = tested on: SW-620 colon
UACC-62 melanoma = tested on: UACC-62 melanoma

Row | SMILES | GI50 (BT-549 breast) | TGI (BT-549 breast) | GI50 (CAKI-1 renal) | TGI (CAKI-1 renal) | GI50 (HCC-2998 colon) | TGI (HCC-2998 colon) | GI50 (KM12 colon) | TGI (KM12 colon) | GI50 (MOLT-4 leukemia) | TGI (MOLT-4 leukemia) | GI50 (NCI-H23 lung) | TGI (NCI-H23 lung) | GI50 (SN12C renal) | TGI (SN12C renal) | GI50 (SNB-75 CNS) | TGI (SNB-75 CNS) | GI50 (SW-620 colon) | TGI (SW-620 colon) | GI50 (UACC-62 melanoma) | TGI (UACC-62 melanoma)
1 | COc1cc(S(=O)(=O)Nc2nc(-c3ccc(N4C(=O)C(C)SC4c4ccccc4O)cc3)cs2)ccc1Cl (centres undefined) | 32 µM | > 100 µM | 67.7 µM | > 100 µM | 50.3 µM | > 100 µM | 51.1 µM | > 100 µM | 34.4 µM | > 100 µM | 42.2 µM | > 100 µM | 47.4 µM | > 100 µM | 42.4 µM | > 100 µM | 62 µM | > 100 µM | 39.9 µM | > 100 µM
2 | COc1ccc(CSC2=C(C#N)C(=O)NC3(CCCCC3)S2)cc1 | – | > 100 µM | – | > 100 µM | – | 62.4 µM | – | – | – | > 100 µM | – | > 100 µM | – | > 100 µM | – | > 100 µM | – | > 100 µM | – | > 100 µM
3 | COc1cc(C2c3cc4c(cc3OC(O)C2C)OCO4)cc(OC)c1OC (centres undefined) | – | > 59.2 µM | – | 37.4 µM | – | > 41.8 µM | – | 27.2 µM | – | > 31.9 µM | – | – | – | > 65 µM | – | 4.93 µM | – | > 100 µM | – | > 100 µM
4 | Cc1ccc(S(=O)(=O)n2cc([C@@]3(O)C[C@H](CSC#N)OC3=O)c3ccccc32)cc1 | 16.9 µM | 33.1 µM | 0.0836 µM | 25.8 µM | 27 µM | > 100 µM | 4.65 µM | 23 µM | 1.71 µM | 4.52 µM | 26.5 µM | > 100 µM | 7.97 µM | 24.9 µM | 15.5 µM | 71 µM | 5.98 µM | 19.5 µM | 15 µM | 35.5 µM
5 | NC(N)=NC(N)=Nc1ccc(C(=O)O)cc1 | – | > 100 µM | – | > 100 µM | – | > 100 µM | – | > 100 µM | – | > 100 µM | – | > 100 µM | – | > 100 µM | – | > 100 µM | – | > 100 µM | – | > 100 µM
6 | OCCCCC#Cc1ccccc1C#Cc1cccnc1 | 28.4 µM | > 100 µM | 29.1 µM | 83.5 µM | 24.8 µM | 70.7 µM | 35.2 µM | > 100 µM | 27.9 µM | > 100 µM | 28 µM | > 100 µM | 26.9 µM | 82.6 µM | 40.3 µM | > 100 µM | 45.2 µM | > 100 µM | 35.2 µM | > 100 µM
7 | COc1ccc(Nc2ncnc3ccc(-c4cncc(NS(C)(=O)=O)c4)cc23)cc1Cl | 1.67 µM | 7.12 µM | – | – | 4.03 µM | 15.4 µM | 3.15 µM | 11.7 µM | 1.5 µM | 4 µM | 2.66 µM | 15 µM | 3.09 µM | 18.7 µM | 0.352 µM | 6.37 µM | 3.23 µM | 12.4 µM | 2.14 µM | 8.31 µM
8 | C=C(C)[C@@H]1CCc2c(O)c(O)c(=O)cc(C)c2C1 | – | > 100 µM | – | 10.9 µM | – | > 100 µM | – | > 100 µM | – | > 25.2 µM | – | 48.9 µM | – | > 100 µM | – | > 83.3 µM | – | > 100 µM | – | 48.3 µM
9 | CC(C)C1(NC(=O)C2CC3c4cccc5[nH]cc(c45)CC3N(C)C2)OC2(O)C3CCCN3C(=O)C(Cc3ccccc3)N2C1=O (centres undefined) | – | > 100 µM | – | > 100 µM | – | > 100 µM | – | 82.2 µM | – | 80.4 µM | – | > 100 µM | – | > 100 µM | – | 86.8 µM | – | > 100 µM | – | > 100 µM
10 | O=C(O)COc1ccc(OCC(=O)O)cc1 | 1.47 µM | 11.6 µM | 22.2 µM | > 100 µM | 1.5 µM | 6.82 µM | 1.71 µM | 10.7 µM | 0.0557 µM | 23.5 µM | 0.513 µM | 3.09 µM | 0.275 µM | 18 µM | 0.684 µM | 10.1 µM | 0.312 µM | 12.8 µM | 0.326 µM | 2.9 µM
11 | O=C1C=CC(=O)c2c1ccc1c3ccccc3n(Cc3ccccc3)c21 | – | 43.9 µM | – | 32 µM | – | > 79.5 µM | – | > 100 µM | – | > 38.4 µM | – | 42.7 µM | – | 42.9 µM | – | > 100 µM | – | 25.7 µM | – | 67.8 µM
12 | COc1cc(OC)c2c(=O)cc(-c3ccccc3OCc3ccccc3)oc2c1OC | 3.76 µM | 24.6 µM | 3.21 µM | 24.2 µM | 2.39 µM | 7.54 µM | 3.25 µM | 16.2 µM | – | – | 5.94 µM | 23.4 µM | 20.4 µM | > 100 µM | 61.8 µM | > 100 µM | 8.06 µM | > 100 µM | 4.14 µM | 17.7 µM
13 | CC(C)=Cc1cc(C)c2ccc(C)c3c2c1C(C)=C(O)C3=O | 28.7 µM | 89.5 µM | 23.8 µM | 65.9 µM | 18 µM | 37.4 µM | 29.8 µM | > 100 µM | 1.19 µM | 6.05 µM | – | – | 24.3 µM | 61.6 µM | > 100 µM | > 100 µM | 30 µM | > 100 µM | 19.8 µM | 46.7 µM
14 | COc1ccc2c(c1O)[C@@]13CCCC=C1[C@@H](C2)[N+](C)(C)CC3 | – | > 100 µM | – | > 100 µM | – | > 100 µM | – | > 100 µM | – | – | – | > 100 µM | – | > 100 µM | – | > 100 µM | – | > 100 µM | – | > 100 µM
15 | CC(C)(C)c1ccc(C2CC(=O)C3=C(C2)Nc2ccccc2N(C(=O)c2ccccc2Cl)C3c2ccc(F)cc2)cc1 (centres undefined) | > 100 µM | > 100 µM | > 100 µM | > 100 µM | > 100 µM | > 100 µM | > 100 µM | > 100 µM | – | – | > 100 µM | > 100 µM | > 100 µM | > 100 µM | > 100 µM | > 100 µM | > 100 µM | > 100 µM | > 100 µM | > 100 µM
